# ChEMBL document CHEMBL4261503, “Scaffold hopping via ANCHOR.QUERY: β-lactams as potent p53-MDM2 antagonists†” (Medchemcomm, 2017)
# Columns and labels:
# Protein Mdm4 = target: T1, Protein Mdm4 (Homo sapiens, UniProt O15151)
# T1 sequence (O15151 whole entry): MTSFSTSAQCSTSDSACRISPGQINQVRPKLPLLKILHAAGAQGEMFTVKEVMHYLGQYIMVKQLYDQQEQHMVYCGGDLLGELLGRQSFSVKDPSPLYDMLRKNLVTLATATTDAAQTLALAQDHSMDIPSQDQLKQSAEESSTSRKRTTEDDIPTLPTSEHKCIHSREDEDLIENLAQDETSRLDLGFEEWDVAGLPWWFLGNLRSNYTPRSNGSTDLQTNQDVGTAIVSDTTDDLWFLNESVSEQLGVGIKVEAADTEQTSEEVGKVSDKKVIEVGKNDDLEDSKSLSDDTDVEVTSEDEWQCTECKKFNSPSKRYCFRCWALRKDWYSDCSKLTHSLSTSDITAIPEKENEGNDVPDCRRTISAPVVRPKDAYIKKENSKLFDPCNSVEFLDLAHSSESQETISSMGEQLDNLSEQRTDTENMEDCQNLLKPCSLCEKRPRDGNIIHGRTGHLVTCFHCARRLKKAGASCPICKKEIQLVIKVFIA
# [1] = target: E3 ubiquitin-protein ligase Mdm2 (Homo sapiens, UniProt Q00987)
# E3 ubiquitin-protein ligase Mdm2, sequence (Q00987 whole entry): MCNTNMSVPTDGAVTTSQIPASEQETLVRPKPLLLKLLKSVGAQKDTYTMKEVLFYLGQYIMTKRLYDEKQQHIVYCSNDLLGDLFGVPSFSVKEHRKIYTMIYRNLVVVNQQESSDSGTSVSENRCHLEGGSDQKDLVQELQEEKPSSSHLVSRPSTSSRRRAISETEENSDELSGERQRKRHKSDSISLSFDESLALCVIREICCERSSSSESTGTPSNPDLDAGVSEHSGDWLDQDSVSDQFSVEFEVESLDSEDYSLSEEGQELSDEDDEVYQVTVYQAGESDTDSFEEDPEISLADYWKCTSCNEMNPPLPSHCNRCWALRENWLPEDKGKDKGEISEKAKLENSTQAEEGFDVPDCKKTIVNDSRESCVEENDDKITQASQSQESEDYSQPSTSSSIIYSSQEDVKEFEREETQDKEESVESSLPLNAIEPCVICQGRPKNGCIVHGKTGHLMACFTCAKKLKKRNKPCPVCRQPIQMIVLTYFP
Compound,Ki (Protein Mdm4),Ki [1]
CC(C)(C)NC(=O)C(c1ccc(Cl)cc1)N1C(=O)CC1c1ccc(OCc2ccccc2)cc1 (mixture of isomers),Not Active,Not Active
"O=C(NC12CC3CC(CC(C3)C1)C2)C(c1ccc(Cl)cc1)N1C(=O)CC1c1ccc(OCc2ccccc2)cc1 (single isomer, unassigned; diastereomer A)",Not Active,Not Active
